Data from patent US20140171404A1, “Autotaxin inhibitors” (NOVARTIS AG, priority 2012, published 2014).

molecular target: T1, Recombinant human ATX (Homo sapiens, UniProt Q13822); test: Assessing ATX inhibition: released choline, Amplex Red fluorescence; type: biochemical; conditions: not given
T1 construct: made in house; host or cells: human embryonic kidney (HEK) cells
Protocol: LPC (oleoyl (18:1)) was purchased from Avanti Polar Lipids (Alabaster; AL) and solubilized in methanol to 20 mM. Amplex Red was obtained from Invitrogen Life Technologies (Paisley, UK) and dissolved in DMSO to 10 mM. Choline oxidase and horseradish peroxidase (HRP) were obtained from Sigma Aldrich (Dorset, UK) and dissolved in HBSS to 20 U/ml and 200 U/ml respectively. All reagents were stored at −20° C. in single use aliquots. All experimental measurements were performed in assay buffer made up immediately prior to use (HBSS, 0.01% BSA essentially fatty acid free).
Recombinant human ATX was prepared at Novartis (Basel, CH) in a human embryonic kidney (HEK) cell preparation, and stored in single use aliquots of […] (26 μM) stocks stored at −80° C.
All experimental measurements were performed in black 384 well polystyrene (low volume, round bottom, Corning (3676)) plates. PerkinElmer EnVision (Fluorescence Intensity/Absorbance Monochromator) or Tecan Infinite 200 PRO series plate reader was used to detect change in fluorescent intensity.
ATX activity was determined by measurement of released choline in reactions containing ATX (10 nM), choline oxidase (0.1 U/ml), HRP (100 U/ml), amplex red (50 μM) and LPC 18:1 (10 μM). Compounds of the invention were prepared as 10 point serial dilutions from 1 μM in duplicate and pre-incubated with ATX at 37° C. for 20 minutes prior to the addition of remaining reagents. The liberated choline was measured from changes in fluorescence intensity (λex 530 nm, λem 590 nm) of the product resurofin at 37° C. every 2 minutes over a 40-minute period. ATX activity was measured as a slope of the linear portion of the progress curve, typically between 14 to 24 minutes.
Slope data was exported to Graphpad prism (Graphpad software, San Diego, Calif.) where data was fitted to equation 1.
Y=Bottom+(Top−Bottom)/(1+10̂((Log IC50−X)*HillSlope)) Equation 1: […]

O=C(NC1CC2CCC(C1)N2C(=O)CCCc1c[nH]nn1)OCc1cc(Cl)cc(Cl)c1 (stereo not drawn) [Example 47, 3,5-Dichlorobenzyl (8-(4-(1H-1,2,3-triazol-4-yl)butanoyl)-8-azabicyclo[3.2.1]octan-3-yl)carbamate] gave an IC50 of 3.16 µM.

same assay, conditions: ATX 10 nM, LPC 18:1 10 μM, pre-incubated with ATX at 37° C. for 20 minutes; Table 1, exemplified compounds; read-out: IC50

In order of rising IC50:
1. O=C(CCCc1c[nH]nn1)NC1CCN(C(=O)OCc2cc(Br)cc(C(F)(F)F)c2)CC1 [Example 63, 3-Bromo-5-(trifluoromethyl)benzyl 4-(4-(1H-1,2,3-triazol-4-yl)butanamido)piperidine-1-carboxylate]  0.003 µM
2. N#Cc1cc(COC(=O)N2CCC(NC(=O)CCCc3c[nH]nn3)CC2)cc(C(F)(F)F)c1 [Example 66, 3-Cyano-5-(trifluoromethyl)benzyl 4-(4-(1H-1,2,3-triazol-4-yl)butanamido)piperidine-1-carboxylate]  0.004 µM
3. O=C(CCCCCc1c[nH]nn1)NC1CCN(C(=O)OCc2cc(Cl)cc(Cl)c2)CC1 [Example 67, 3,5-Dichlorobenzyl 4-(6-(1H-1,2,3-triazol-4-yl)hexanamido)piperidine-1-carboxylate]  0.004 µM
4. Cc1cc(COC(=O)N2CCC(NC(=O)CCCc3c[nH]nn3)CC2)cc(C(F)(F)F)c1 [Example 62, 3-Methyl-5-(trifluoromethyl)benzyl 4-(4-(1H-1,2,3-triazol-4-yl)butanamido)piperidine-1-carboxylate]  0.005 µM
5. N#Cc1cc(COC(=O)N2CCC(NC(=O)CCCc3c[nH]nn3)CC2)cc(OC(F)(F)F)c1 [Example 70, 3-Cyano-5-(trifluoromethoxy)benzyl 4-(4-(1H-1,2,3-triazol-4-yl)butanamido)piperidine-1-carboxylate]  0.005 µM
6. Cc1cc(C)cc(COC(=O)N2CCC(NC(=O)CCCc3c[nH]nn3)CC2)c1 [Example 51, 3,5-Dimethyl benzyl 4-(4-(1H-1,2,3-triazol-4-yl)butanamido)piperidine-1-carboxylate]  0.006 µM
7. O=C(CCC1CCN(C(=O)OCc2cc(Cl)cc(Cl)c2)CC1)NCc1c[nH]nn1 [Example 60, 3,5-Dichlorobenzyl 4-(3-(((1H-1,2,3-triazol-4-yl)methyl)amino)-3-oxopropyl)piperidine-1-carboxylate]  0.007 µM
8. N#Cc1cc(COC(=O)N2CCC(NC(=O)CCCc3c[nH]nn3)CC2)cc(Cl)c1Cl [Example 72, 3,4-Dichloro-5-cyanobenzyl 4-(4-(1H-1,2,3-triazol-4-yl)butanamido)piperidine-1-carboxylate]  0.007 µM
9. N#Cc1cc(Cl)cc(COC(=O)N2CCC(NC(=O)CCCc3c[nH]nn3)CC2)c1 [Example 44, 3-Chloro-5-cyanobenzyl 4-(4-(1H-1,2,3-triazol-4-yl)butanamido)piperidine-1-carboxylate]  0.008 µM
10. N#Cc1cc(Cl)cc(COC(=O)N2CCC(NC(=O)CCCCc3c[nH]nn3)CC2)c1 [Example 64, 3-Chloro-5-cyanobenzyl 4-(5-(1H-1,2,3-triazol-4-yl)pentanamido)piperidine-1-carboxylate]  0.008 µM
11. Cc1cc(Cl)cc(COC(=O)N2CCC(NC(=O)CCCc3c[nH]nn3)CC2)c1 [Example 56, 3-Chloro-5-methylbenzyl 4-(4-(1H-1,2,3-triazol-4-yl)butanamido)piperidine-1-carboxylate]  0.01 µM
12. O=C(CCCc1c[nH]nn1)NC1CN(C(=O)OCc2cc(Cl)cc(Cl)c2)C1 [Example 50, 3,5-Dichlorobenzyl 3-(4-(1H-1,2,3-triazol-4-yl)butanamido)azetidine-1-carboxylate]  0.012 µM
13. Cc1cc(C#N)cc(COC(=O)N2CCC(NC(=O)CCCc3c[nH]nn3)CC2)c1 [Example 71, 3-Cyano-5-methylbenzyl 4-(4-(1H-1,2,3-triazol-4-yl)butanamido)piperidine-1-carboxylate]  0.013 µM
14. O=C(CC1CCN(C(=O)OCc2cc(Cl)cc(Cl)c2)CC1)NCCc1c[nH]nn1 [Example 61, 3,5-Dichlorobenzyl 4-(2-((2-(1H-1,2,3-triazol-4-yl)ethyl)amino)-2-oxoethyl)piperidine-1-carboxylate]  0.015 µM
15. O=C(CCc1cnn[nH]1)NCC1CCN(C(=O)OCc2cc(Cl)cc(Cl)c2)CC1 [Example 57, 3,5-Dichlorobenzyl 4-((3-(1H-1,2,3-triazol-5-yl)propanamido)methyl)piperidine-1-carboxylate]  0.017 µM
16. O=C(CCCc1cnn[nH]1)NCC1CCN(C(=O)OCc2cc(Cl)cc(Cl)c2)CC1 [Example 41, 3,5-Dichlorobenzyl 4-((4-(1H-1,2,3-triazol-5-yl)butanamido)methyl)piperidine-1-carboxylate]  0.018 µM
17. O=C(CCCc1c[nH]nn1)NC1CCN(C(=O)OCCc2cc(Cl)cc(Cl)c2)CC1 [Example 59, 3,5-Dichlorophenethyl 4-(4-(1H-1,2,3-triazol-4-yl)butanamido)piperidine-1-carboxylate]  0.024 µM
18. N#Cc1cc(Cl)cc(COC(=O)N2CCC(NC(=O)CCc3c[nH]nn3)CC2)c1 [Example 65, 3-Chloro-5-cyanobenzyl 4-(3-(1H-1,2,3-triazol-4-yl)propanamido)piperidine-1-carboxylate]  0.026 µM
19. O=C(CCCc1c[nH]nn1)NC1CCN(C(=O)OCc2ccc(C(F)(F)F)cc2)CC1 [Example 53, 4-(Trifluoromethyl)benzyl 4-(4-(1H-1,2,3-triazol-4-yl)butanamido)piperidine-1-carboxylate]  0.04 µM
20. O=C(NC1CCN(C(=O)CCCCc2c[nH]nn2)CC1)OCc1cc(Cl)cc(Cl)c1 [Example 52, 3,5-Dichlorobenzyl (1-(5-(1H-1,2,3-triazol-4-yl)pentanoyl)piperidin-4-yl)carbamate]  0.042 µM
21. N#Cc1cc(Cl)cc(COC(=O)N2CCC(CCCCCc3c[nH]nn3)CC2)c1 [Example 69, 3-Chloro-5-cyanobenzyl 4-(5-(1H-1,2,3-triazol-4-yl)pentyl)piperidine-1-carboxylate]  0.069 µM
22. O=C(CCCc1c[nH]nn1)NC1CCN(C(=O)/C=C/c2ccc(Cl)cc2Cl)CC1 [Example 39, (E)-N-(1-(3-(2,4-Dichlorophenyl)acryloyl)piperidin-4-yl)-4-(1H-1,2,3-triazol-4-yl)butanamide]  0.077 µM
23. O=C(CCCc1c[nH]nn1)NC1CCN(C(=O)CCc2ccc(C(F)(F)F)cc2)CC1 [Example 54, 4-(1H-1,2,3-Triazol-4-yl)-N-(1-(3-(4-(trifluoromethyl)phenyl)propanoyl)piperidin-4-yl)butanamide]  0.087 µM
24. O=C(CCCc1c[nH]nn1)NC1CCN(C(=O)CCc2ccc(Cl)cc2Cl)CC1 [Example 43, N-(1-(3-(2,4-Dichlorophenyl)propanoyl)piperidin-4-yl)-4-(1H-1,2,3-triazol-4-yl)butanamide]  0.113 µM
25. O=C(CCCc1c[nH]nn1)NC1CCN(C(=O)CCc2cc(Cl)cc(Cl)c2)CC1 [Example 42, N-(1-(3-(3,5-Dichlorophenyl)propanoyl)piperidin-4-yl)-4-(1H-1,2,3-triazol-4-yl)butanamide]  0.119 µM
26. O=C(O)CCCCCCC(=O)NC1CCN(C(=O)OCc2cc(Cl)cc(Cl)c2)CC1 [Example 40, 8-((1-(((3,5-Dichlorobenzyl)oxy)carbonyl)piperidin-4-yl)amino)-8-oxooctanoic acid]  0.135 µM
27. O=C(CCCc1c[nH]nn1)NC1CCN(C(=O)COc2cc(Cl)cc(Cl)c2)CC1 [Example 55, N-(1-(2-(3,5-Dichlorophenoxy)acetyl)piperidin-4-yl)-4-(1H-1,2,3-triazol-4-yl)butanamide]  0.154 µM
28. O=C(CCCc1c[nH]nn1)NC1CCN(C(=O)OCc2ccc(Cl)cc2Cl)CC1 [Example 58, 2,4-Dichlorobenzyl 4-(4-(1H-1,2,3-triazol-4-yl)butanamido)piperidine-1-carboxylate]  0.206 µM
29. O=C(OCc1cc(Cl)cc(Cl)c1)N1CCC(CCCCCc2c[nH]nn2)CC1 [Example 68, 3,5-Dichlorobenzyl 4-(5-(1H-1,2,3-triazol-4-yl)pentyl)piperidine-1-carboxylate]  0.318 µM
30. O=C(CCCc1c[nH]nn1)NC1CC2CCC(C1)N2C(=O)OCc1cc(Cl)cc(Cl)c1 (stereo not drawn) [Example 45, 3,5-Dichlorobenzyl 3-(4-(1H-1,2,3-triazol-4-yl)butanamido)-8-azabicyclo[3.2.1]octane-8-carboxylate]  0.555 µM
31. O=C(CCCc1c[nH]nn1)NC1CCCN(C(=O)OCc2cc(Cl)cc(Cl)c2)CC1 (stereo not drawn) [Example 46, 3,5-Dichlorobenzyl 4-(4-(1H-1,2,3-triazol-4-yl)butanamido)azepane-1-carboxylate]  0.731 µM
32. O=C(NC1CCCN(C(=O)CCCc2c[nH]nn2)CC1)OCc1cc(Cl)cc(Cl)c1 (stereo not drawn) [Example 48, 3,5-Dichlorobenzyl (1-(4-(1H-1,2,3-triazol-4-yl)butanoyl)azepan-4-yl)carbamate]  0.791 µM
